Measurements taken from patent US20130102631A1, “NOVEL MICROBIOCIDAL DIOXIME ETHER DERIVATIVES” (SYNGENTA CROP PROTECTION LLC, priority 2010, published 2013).

Legend:
[1] = test system: Mycosphaerella arachidis (Cercospora arachidicola); experiment: Mycosphaerella arachidis (Cercospora arachidicola) / liquid culture (early leaf spot); format: cell-based; details: at ≦200 ppm, liquid culture PDB, inhibition of growth photometrically 4-5 days after application, read-out: control of Mycosphaerella arachidis
Method: Mycosphaerella arachidis (Cercospora arachidicola)/Liquid Culture (Early Leaf Spot): Conidia of the fungus from cryogenic storage were directly mixed into nutrient broth (PDB potato dextrose broth). After placing a DMSO solution of test compound into a 96-well microtiter plate, the nutrient broth containing the fungal spores was added. The test plates are incubated at 24° C. and the inhibition of growth was determined photometrically 4-5 days after application. […]-2.509; 5.561; 2.561; P.57; 2.513; 2.559; 2.558; 2.557; 2.556; 2.555; 2.374; 2.553; 2.552; 2.551 (fraction B); 2.551 (fraction A); 2.544; 2.541; 2.539; 2.537; 2.536; 2.533; 2.532; 2.531; 2.530; 2.528; 2.526; 2.525 (fraction B); 2.525 (fraction A); 2.524; 2.520; 2.519; 2.510; 2.518; 2.517; 2.516; 2.514; […].002; 2.512; 2.511; 2.514

Gaeumannomyces graminis = Gaeumannomyces graminis / liquid culture (take-all of cereals); format: cell-based; details: at ≦200 ppm, liquid culture PDB, inhibition of growth photometrically 4-5 days after application, read-out: control of Gaeumannomyces graminis
Method: Gaeumannomyces graminis/Liquid Culture (Take-All of Cereals): Mycelial fragments of the fungus from cryogenic storage were directly mixed into nutrient broth (PDB potato dextrose broth). After placing a DMSO solution of test compound into a 96-well microtiter plate, the nutrient broth containing the fungal spores is added. The test plates were incubated at 24° C. and the inhibition of growth was determined photometrically 4-5 days after application. […]-2.509; 5.561; 2.561; P.57; 2.513; 2.559; 2.558; 2.557; 2.556; 2.555; 2.374; 2.553; 2.552; 2.551 (fraction B); 2.551 (fraction A); 2.539; 2.533; 2.528; 2.526; 2.525 (fraction B); 2.525 (fraction A); 2.524; 2.523; 2.521; 2.520; 2.519; 2.510; 2.518; 2.516; 2.514; E/E-5.167; E/E-3.002; 2.512; E/E-2.508

[2] = test system: Mycosphaerella graminicola (Septoria tritici); experiment: Mycosphaerella graminicola (Septoria tritici) / liquid culture (Septoria blotch); format: cell-based; details: Zymoseptoria tritici; at ≦200 ppm, liquid culture PDB, inhibition of growth photometrically 4-5 days after application; read-out: control of Mycosphaerella graminicola
[3] = test system: Phaeosphaeria nodorum (Septoria nodorum); experiment: Phaeosphaeria nodorum (Septoria nodorum) / wheat / leaf disc preventative (glume blotch); format: in vivo; details: Parastagonospora nodorum, foliar, wheat leaf segments cv Kanzler, inoculated 2 days after application, assessed 5-7 days after application
Method: Phaeosphaeria nodorum (Septoria nodorum)/Wheat/Leaf Disc Preventative (Glume Blotch): Wheat leaf segments cv Kanzler were placed on agar in a 24-well plate and sprayed with formulated test compound diluted in water at an application rate of 200 ppm. The leaf disks are inoculated with a spore suspension of the fungus 2 days after application. The inoculated test leaf disks are incubated at 20° C. and 75% relative humidity under a light regime of 12/12 h (light/dark) in a climate cabinet and the activity of a compound is assessed as percent disease control compared to untreated when an appropriate level of disease damage appears in untreated check leaf disks (5-7 days after application). […]-2.508; 5.561; 2.561; E/E-2.208; P.57; 2.513; 2.559; 2.558; 2.557; 2.556; 2.555; 2.374; 2.544; 2.541; 2.539; 2.537; 2.536; 2.535; 2.533; 2.530; 2.526; 2.519; 2.510; 2.516; 2.514; E/E-5.167; E/E-3.002; 2.512

Glomerella lagenarium = Glomerella lagenarium (Colletotrichum lagenarium) / liquid culture (anthracnose); format: cell-based; details: Colletotrichum orbiculare; at ≦200 ppm, liquid culture PDB, inhibition of growth photometrically 3-4 days after application; read-out: control of Glomerella lagenarium
Method: Glomerella lagenarium (Colletotfichum lagenarium)/Liquid Culture (Anthracnose): Conidia of the fungus from cryogenic storage were directly mixed into nutrient broth (PDB potato dextrose broth). After placing a DMSO solution of test compound into a 96-well microtiter, the nutrient broth containing the fungal spores was added. The test plates were incubated at 24° C. and the inhibition of growth is measured photometrically 3-4 days after application. […]-2.509; 5.561; 2.561; E/E-2.208; P.57; 2.513; 2.559; 2.556; 2.555; 2.374; 2.552; 2.548; 2.544; 2.541; 2.540; 2.539; 2.537; 2.536; 2.533; 2.531; 2.530; 2.528; 2.526; 2.519; 2.510; 2.516; 2.514; E/E-5.167; E/E-3.002; 2.512; 2.514; Z/E-2.474

[4] = test system: Monographella nivalis (Microdochium nivale); experiment: Monographella nivalis (Microdochium nivale) / liquid culture (foot rot cereals); format: cell-based; details: at ≦200 ppm, liquid culture PDB, inhibition of growth photometrically 4-5 days after application, read-out: control of Monographella nivalis
Method: Monographella nivalis (Microdochium nivale)/Liquid Culture (Foot Rot Cereals): Conidia of the fungus from cryogenic storage were directly mixed into nutrient broth (PDB potato dextrose broth). After placing a DMSO solution of test compound into a 96-well microtiter plate, the nutrient broth containing the fungal spores was added. The test plates were incubated at 24° C. and the inhibition of growth was determined photometrically 4-5 days after application. […].57; 2.513; 2.559; 2.558; 2.556; 2.555; 2.374; 2.553; 2.551 (fraction B); 2.551 (fraction A); 2.548; 2.544; 2.542; 2.541; 2.539; 2.536; 2.535; 2.533; 2.530; 2.528; 2.526; 2.525 (fraction B); 2.525 (fraction A); 2.524; 2.519; 2.518; 2.516; 2.514; E/E-5.167; 2.512; 2.514

[5] = test system: Blumeria graminis f. sp. tritici (Erysiphe graminis f. sp. tritici); experiment: Blumeria graminis f. sp. tritici / wheat / leaf disc preventative (powdery mildew on wheat); format: in vivo; details: foliar, wheat leaf segments cv. Kanzler, inoculated 1 day after application, assessed 6-8 days after application
Method: Blumeria graminis f. sp. tritici (Erysiphe graminis f. sp. tritici)/Wheat/Leaf Disc Preventative (Powdery Mildew on Wheat):
Wheat leaf segments cv. Kanzler were placed on agar in a 24-well plate and sprayed with the formulated test compound diluted in water at an application rate of 200 ppm. The leaf disks were inoculated by shaking powdery mildew infected plants above the test plates 1 day after application. The inoculated leaf disks were incubated at 20° C. and 60% relative humidity under a light regime of 24 h darkness followed by 12 h/12 h (dark/light) in a climate chamber and the activity of a compound was assessed as percent disease control compared to untreated when an appropriate level of disease damage appears on untreated check leaf segments (6-8 days after application). The following compounds gave at least 80% control of Blumeria graminis: E/E-2.168, E/E-2.474, E/E-2.002; 5.561; 2.561; E/E-2.208; 2.513; 2.559; 2.557; 2.556; 2.555; 2.374; 2.552; 2.537; 2.533; 2.530; 2.528; 2.526; 2.519; 2.510; 2.516; 2.514; E/E-5.167; E/E-3.002; 2.512; 2.511

Row | Structure (SMILES) | inhibition of growth at up to 200 µg/mL [1] [%] | inhibition of growth at up to 200 µg/mL (Gaeumannomyces graminis) [%] | inhibition of growth at up to 200 µg/mL [2] [%] | pest or weed control at 200 ppm [3] [%] | inhibition of growth at up to 200 µg/mL (Glomerella lagenarium) [%] | inhibition of growth at up to 200 µg/mL [4] [%] | pest or weed control at 200 ppm [5] [%]
1 | Cc1ccc2c(n1)/C(=N/OCC(C)(C)CO/N=C(/c1ccccn1)c1ncc(C(F)(F)F)cc1Cl)CCC2 [Compound 2.520] | ≥ 80 | ≥ 80 | – | – | – | – | –
2 | CC/C(=N\OCC(C)(C)CO/N=C1\CCCc2ccc(C)nc21)c1ncc(Cl)cc1Cl [Compound 2.549] | – | – | ≥ 80 | – | – | – | –
3 | Cc1ccc2c(n1)/C(=N/OCC(C)(C)CO/N=C(/c1cccc(Br)n1)c1ccccc1C)CCC2 [Compound 2.539] | ≥ 80 | ≥ 80 | ≥ 80 | ≥ 80 | ≥ 80 | ≥ 80 | –
4 | COC(=O)c1ccc(C(F)(F)F)nc1/C(C)=N/OCC(C)(C)CO/N=C1\CCCc2ccc(C)nc21 [Compound 2.540] | – | – | ≥ 80 | – | ≥ 80 | – | –
5 | Cc1ccc2c(n1)/C(=N/OCC(C)(C)CO/N=C(/c1ncc(Cl)cc1Cl)C(C)C)CCC2 [Compound 2.542] | – | – | ≥ 80 | – | – | ≥ 80 | –
6 | Cc1ccc2c(n1)/C(=N/OCC(C)(C)CO/N=C(\c1ccc(Cl)cc1)c1ccccn1)CCC2 [Compound 2.532] | ≥ 80 | – | ≥ 80 | – | – | – | –
7 | C/C(=N\OCC(C)(C)CO/N=C1\CCCc2ccc(C)nc21)c1cc(C(C)(C)C)ccn1 [Compound 2.541] | ≥ 80 | – | ≥ 80 | ≥ 80 | ≥ 80 | ≥ 80 | –
8 | Cc1ccc2c(n1)/C(=N/OCC(C)(C)CON=C(c1ccccn1)c1ccccn1)CCC2 [Compound 2.511] | ≥ 80 | – | – | – | – | – | ≥ 80
9 | C/C(=N\OCC(C)(C)CO/N=C1\CCCc2ccc(C)nc21)c1ncc(Cl)cc1F [E/E-2.509] | ≥ 80 | ≥ 80 | ≥ 80 | – | ≥ 80 | ≥ 80 | –
10 | C/C(=N\OCC(C)(C)CO/N=C1\CCCc2ccc(C)nc21)c1cc(C#N)ccn1 [Compound 2.531] | ≥ 80 | – | ≥ 80 | – | ≥ 80 | – | –
11 | CC/C(=N/OCC(C)(C)CO/N=C1\CCCc2ccc(C)nc21)c1ccc(C(F)(F)F)cn1 [Compound 2.524] | ≥ 80 | ≥ 80 | – | – | – | ≥ 80 | –
12 | Cc1ccc2c(n1)/C(=N/OCC(C)(C)CO/N=C(/c1ccccc1)c1ncc(C(F)(F)F)cc1Cl)CCC2 [Compound 2.521] | – | ≥ 80 | – | – | – | – | –
13 | C/C(=N\OCC(C)(C)CO/N=C1\CCCc2ccc(C)nc21)c1cccc(C#N)n1 [Compound 2.536] | ≥ 80 | – | ≥ 80 | ≥ 80 | ≥ 80 | ≥ 80 | –
14 | Cc1ccc2c(n1)/C(=N/OCC(C)(C)CO/N=C(\c1ncc(Cl)cc1F)C(C)Cl)CCC2 (stereo not drawn) [Compound 2.545] | – | – | ≥ 80 | – | – | – | –
15 | Cc1cccc(/C(=N\OCC(C)(C)CO/N=C2\CCCc3ccc(C)nc32)c2ccccc2)n1 [Z/E-2.474] | ≥ 80 | – | – | – | ≥ 80 | – | –
16 | C/C(=N\OCC(C)(C)CO/N=C1\CCCc2ccc(C)nc21)c1ncc(C(F)(F)F)cc1Cl (single isomer, unassigned) [2.551 (fraction B)] | ≥ 80 | ≥ 80 | ≥ 80 | – | – | ≥ 80 | –
17 | CCOC(=O)c1ccc(/C(C)=N\OCC(C)(C)CO/N=C2\CCCc3ccc(C)nc32)nc1C(F)(F)F [Compound 2.523] | – | ≥ 80 | – | – | – | – | –
18 | COC(=O)C/C(=N/OCC(C)(C)CO/N=C1\CCCc2ccc(C)nc21)c1ncc(Cl)cc1F [Compound 2.518] | ≥ 80 | ≥ 80 | – | – | – | ≥ 80 | –
19 | Cc1cc(C)nc(C(=NOCCCO/N=C2\CCCc3ccc(C)nc32)c2cc(C)cc(C)n2)c1 [Compound 2.557] | ≥ 80 | ≥ 80 | – | ≥ 80 | – | – | ≥ 80
20 | C/C(=N\OCC(C)(C)CO/N=C1\CCCc2ccc(C)nc21)c1ncc(Cl)cc1O [Compound 2.548] | – | – | ≥ 80 | – | ≥ 80 | ≥ 80 | –
21 | CSc1nc(/C=N/OCC(C)(C)CO/N=C2\CCCc3ccc(C)nc32)ccc1C#N [Compound 2.535] | – | – | ≥ 80 | ≥ 80 | – | ≥ 80 | –
